These are literature values, as cited in US20150269865A1, “SYSTEMS AND METHODS FOR PERSONALIZED NUTRIMERS” (priority 2014, published 2015).

For series [1] the following is noted: PMID 9630738; compared with folic acid.
For series [2] the following is noted: orally administered, human absorption kinetic studies, PMID 3257913.
For series [3] the following is noted: PMID 9630738.
For series [4] the following is noted: in vivo.
Series [5] addresses MTHFR (Homo sapiens, UniProt P42898). The following applies: cofactor of MTHFR or needs to be metabolized into Methyl folate.
The conditions of series [6]: PMID 21735411; compared with Ergocalciferol (vitamin D2).
For series [7] the following is noted: PMID23482308.
The conditions of series [8]: PMID23482308. This is another data set of the same source.
For series [9] the following is noted: human subject treated even for a few months; PMID 23751310.
The subject of series [10] is copper absorption. The following applies: PMID 1726403.
For series [11] the following is noted: in vivo. The source holds these as a separate data set.
The conditions of series [12]: human, in vivo.

Chain of MTHFR (P42898 whole entry): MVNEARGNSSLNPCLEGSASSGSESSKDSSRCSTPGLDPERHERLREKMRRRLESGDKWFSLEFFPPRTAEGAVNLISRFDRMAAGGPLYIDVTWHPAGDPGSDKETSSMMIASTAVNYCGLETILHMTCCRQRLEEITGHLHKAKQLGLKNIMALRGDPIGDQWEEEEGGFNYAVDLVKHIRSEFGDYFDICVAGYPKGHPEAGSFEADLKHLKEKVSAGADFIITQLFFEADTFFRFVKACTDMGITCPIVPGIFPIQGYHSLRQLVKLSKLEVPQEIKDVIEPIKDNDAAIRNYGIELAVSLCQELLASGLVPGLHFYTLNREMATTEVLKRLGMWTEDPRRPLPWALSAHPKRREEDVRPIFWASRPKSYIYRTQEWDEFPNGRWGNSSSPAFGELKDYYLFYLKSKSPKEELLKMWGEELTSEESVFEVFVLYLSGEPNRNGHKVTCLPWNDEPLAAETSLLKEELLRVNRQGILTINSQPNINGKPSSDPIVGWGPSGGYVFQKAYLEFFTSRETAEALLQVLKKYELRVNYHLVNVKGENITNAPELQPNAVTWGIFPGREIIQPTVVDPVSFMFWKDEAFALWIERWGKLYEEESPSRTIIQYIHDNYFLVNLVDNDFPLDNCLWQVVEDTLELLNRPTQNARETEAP

With `Nc1nc(=O)c2c([nH]1)NCC(CNc1ccc(C(=O)N[C@@H](CCC(=O)O)C(=O)O)cc1)N2C=O` (mixture of isomers) [Folinic acid], the Therapeutic effects entry in series [1] was “more metabolically”. Further, in [2], the bioavailability was 92%. In series [3], the “Stability: half-life in the body compared with folic acid” value is on record as “longer half-life in”. Besides, the “transport through the blood brain barrier into the central nervous system” value in [4] is on record as “readily transported”. For the same compound, the Cofactor entry in series [5] is recorded as “Not a cofactor”.

With `C=C1CC[C@H](O)C/C1=C/C=C1\CCC[C@]2(C)[C@@H]([C@H](C)CCCC(C)C)CC[C@@H]12` [Cholecalciferol], the effect on mortality entry in series [6] was “decrease mortality”.

In the case of `Nc1nc2ncc(CNc3ccc(C(=O)N[C@@H](CCC(=O)O)C(=O)O)cc3)nc2c(=O)[nH]1` [Folic acid (FA), Folic acid], the “Side effects: masking of vitamin B12 deficiency” value in series [7] was ““does not mask”. In [8], the “Stability upon exposure to heat compared with natural forms of folate in the diet” value is “FA is more stable”. The Cofactor result in series [5] was “Not a cofactor”.

Turning to `CN(C)C(=N)N=C(N)N` [metformin], the “effect on vitamin B12 and folate levels” value in [9] is “decrease of vitamin B12 and folate”.

With `[Zn]` [zinc], in series [10], the “effect on copper absorption” value is listed as “inhibits copper absorption”.

On to Vitamin E, for which, in series [11], the “effect on absorption of desipramine (Norpramin)” value is recorded as “interferes with the absorption”.

Consider cobalamin [B12], for which the “B12 intake above which absorbance declines with increased supplementation” value in [12] is given as “about 10 mcg”.
